Among the data in the NIST ThermoML archive (doi:10.1016/j.jct.2008.09.012) are molar enthalpy values, retold here.

± gives the expanded uncertainty stated by the source.

A short description of the series: molar enthalpy of vaporization or sublimation. Particulars: 298.15 K; Liquid; Calvet microcalorimetry.
Turning to `COc1ccc(F)cc1` [1-fluoro-4-methoxybenzene], the molar enthalpy came out at 11.6 ± 0.526 kcal/mol. To `COc1ccccc1F` [2-fluoroanisole] belongs 12.5 ± 0.526 kcal/mol; to `COc1cccc(F)c1` [3-fluoroanisole], 11.5 ± 0.526 kcal/mol.
